{"source": "the supplement of paper PMC10307832", "test_in_all_cases": "relative viability (nuclei count vs DMSO), 5 days (fraction); higher = more cells survive", "key": {"HCC-827": {"test_system": "HCC-827", "how_it_was_run": "(§1)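 The day after seeding in 1536-well plates, lung cancer cell lines were treated by pin tool with a single drug, or with a fixed anchor-drug dose together with five library-drug doses (not always all listed) in √10 steps. After 5 days, a combined fix-and-stain solution (final 0.05% Triton X-100, 1% formaldehyde, 1 ug/ml Hoechst) was added. Nuclei counted on 4× images gave relative viability as treated counts over vehicle counts, reported as the median of duplicate plates.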"}, "NCI-H2170": {"test_system": "NCI-H2170", "how_it_was_run": "as §1"}, "NCI-H522": {"test_system": "NCI-H522", "how_it_was_run": "as §1"}, "BEN": {"test_system": "BEN", "how_it_was_run": "as §1"}, "LXF-289": {"test_system": "LXF-289", "how_it_was_run": "as §1"}, "NCI-H1563": {"test_system": "NCI-H1563", "how_it_was_run": "as §1"}, "HCC-44": {"test_system": "HCC-44", "how_it_was_run": "as §1"}, "HARA": {"test_system": "HARA", "how_it_was_run": "as §1"}, "NCI-H727": {"test_system": "NCI-H727", "how_it_was_run": "as §1"}, "COR-L 105": {"test_system": "COR-L 105", "how_it_was_run": "as §1"}, "PC-3 [JPC-3]": {"test_system": "PC-3 [JPC-3]", "how_it_was_run": "as §1"}, "HOP-62": {"test_system": "HOP-62", "how_it_was_run": "as §1"}, "LCLC-97TM1": {"test_system": "LCLC-97TM1", "how_it_was_run": "as §1"}, "NCI-H2009": {"test_system": "NCI-H2009", "how_it_was_run": "as §1"}, "NCI-H1993": {"test_system": "NCI-H1993", "how_it_was_run": "as §1"}, "LC-2-ad": {"test_system": "LC-2-ad", "how_it_was_run": "as §1"}, "NCI-H2087": {"test_system": "NCI-H2087", "how_it_was_run": "as §1"}, "PC-14": {"test_system": "PC-14", "how_it_was_run": "as §1"}, "HCC-15": {"test_system": "HCC-15", "how_it_was_run": "as §1"}, "HCC-366": {"test_system": "HCC-366", "how_it_was_run": "as §1"}, "LU99A": {"test_system": "LU99A", "how_it_was_run": "as §1"}, "COR-L23": {"test_system": "COR-L23", "how_it_was_run": "as §1"}, "NCI-H2126": {"test_system": "NCI-H2126", "how_it_was_run": "as §1"}, "SK-MES-1": {"test_system": "SK-MES-1", "how_it_was_run": "as §1"}, "CAL-12T": {"test_system": "CAL-12T", "how_it_was_run": "as §1"}}}
{"smiles": "CCCCCCCCCCCC1=C(O)C(=O)C=C(O)C1=O", "note": "[Embelin] + N=C(N)NC(=N)NCCc1ccccc1 [Phenformin] (partner 250 µM)", "values": [{"measurement": "relative viability", "setting": "HCC-827; first compound 0.08 µM", "value": 0.426}, {"measurement": "relative viability", "setting": "HCC-827; first compound 0.8 µM", "value": 0.451}, {"measurement": "relative viability", "setting": "HCC-827; first compound 2.53 µM", "value": 0.477}, {"measurement": "relative viability", "setting": "HCC-827; first compound 8 µM", "value": 0.443}, {"measurement": "relative viability", "setting": "NCI-H2170; first compound 0.08 µM", "value": 0.438}, {"measurement": "relative viability", "setting": "NCI-H2170; first compound 0.8 µM", "value": 0.489}, {"measurement": "relative viability", "setting": "NCI-H2170; first compound 2.53 µM", "value": 0.427}, {"measurement": "relative viability", "setting": "NCI-H2170; first compound 8 µM", "value": 0.444}, {"measurement": "relative viability", "setting": "NCI-H522; first compound 0.08 µM", "value": 0.722}, {"measurement": "relative viability", "setting": "NCI-H522; first compound 0.8 µM", "value": 0.856}, {"measurement": "relative viability", "setting": "NCI-H522; first compound 2.53 µM", "value": 0.674}, {"measurement": "relative viability", "setting": "NCI-H522; first compound 8 µM", "value": 0.621}, {"measurement": "relative viability", "setting": "BEN; first compound 0.08 µM", "value": 0.267}, {"measurement": "relative viability", "setting": "BEN; first compound 0.8 µM", "value": 0.285}, {"measurement": "relative viability", "setting": "BEN; first compound 2.53 µM", "value": 0.264}, {"measurement": "relative viability", "setting": "BEN; first compound 8 µM", "value": 0.263}, {"measurement": "relative viability", "setting": "LXF-289; first compound 0.08 µM", "value": 0.509}, {"measurement": "relative viability", "setting": "LXF-289; first compound 0.8 µM", "value": 0.547}, {"measurement": "relative viability", "setting": "LXF-289; first compound 2.53 µM", "value": 0.527}, {"measurement": "relative viability", "setting": "LXF-289; first compound 8 µM", "value": 0.571}, {"measurement": "relative viability", "setting": "NCI-H1563; first compound 0.08 µM", "value": 0.711}, {"measurement": "relative viability", "setting": "NCI-H1563; first compound 0.8 µM", "value": 0.728}, {"measurement": "relative viability", "setting": "NCI-H1563; first compound 2.53 µM", "value": 0.626}, {"measurement": "relative viability", "setting": "NCI-H1563; first compound 8 µM", "value": 0.578}, {"measurement": "relative viability", "setting": "HCC-44; first compound 0.08 µM", "value": 0.175}, {"measurement": "relative viability", "setting": "HCC-44; first compound 0.8 µM", "value": 0.252}, {"measurement": "relative viability", "setting": "HCC-44; first compound 2.53 µM", "value": 0.0967}, {"measurement": "relative viability", "setting": "HCC-44; first compound 8 µM", "value": 0.0958}, {"measurement": "relative viability", "setting": "HARA; first compound 0.08 µM", "value": 0.438}, {"measurement": "relative viability", "setting": "HARA; first compound 0.8 µM", "value": 0.56}, {"measurement": "relative viability", "setting": "HARA; first compound 2.53 µM", "value": 0.497}, {"measurement": "relative viability", "setting": "HARA; first compound 8 µM", "value": 0.455}, {"measurement": "relative viability", "setting": "NCI-H727; first compound 0.08 µM", "value": 0.563}, {"measurement": "relative viability", "setting": "NCI-H727; first compound 0.8 µM", "value": 0.597}, {"measurement": "relative viability", "setting": "NCI-H727; first compound 2.53 µM", "value": 0.513}, {"measurement": "relative viability", "setting": "NCI-H727; first compound 8 µM", "value": 0.5}, {"measurement": "relative viability", "setting": "COR-L 105; first compound 0.08 µM", "value": 0.582}, {"measurement": "relative viability", "setting": "COR-L 105; first compound 0.8 µM", "value": 0.595}, {"measurement": "relative viability", "setting": "COR-L 105; first compound 2.53 µM", "value": 0.446}, {"measurement": "relative viability", "setting": "COR-L 105; first compound 8 µM", "value": 0.496}, {"measurement": "relative viability", "setting": "PC-3 [JPC-3]; first compound 0.08 µM", "value": 0.475}, {"measurement": "relative viability", "setting": "PC-3 [JPC-3]; first compound 0.8 µM", "value": 0.476}, {"measurement": "relative viability", "setting": "PC-3 [JPC-3]; first compound 2.53 µM", "value": 0.477}, {"measurement": "relative viability", "setting": "PC-3 [JPC-3]; first compound 8 µM", "value": 0.477}, {"measurement": "relative viability", "setting": "HOP-62; first compound 0.08 µM", "value": 0.649}, {"measurement": "relative viability", "setting": "HOP-62; first compound 0.8 µM", "value": 0.701}, {"measurement": "relative viability", "setting": "HOP-62; first compound 2.53 µM", "value": 0.777}, {"measurement": "relative viability", "setting": "HOP-62; first compound 8 µM", "value": 0.719}, {"measurement": "relative viability", "setting": "LCLC-97TM1; first compound 0.08 µM", "value": 0.452}, {"measurement": "relative viability", "setting": "LCLC-97TM1; first compound 0.8 µM", "value": 0.432}, {"measurement": "relative viability", "setting": "LCLC-97TM1; first compound 2.53 µM", "value": 0.465}, {"measurement": "relative viability", "setting": "LCLC-97TM1; first compound 8 µM", "value": 0.469}, {"measurement": "relative viability", "setting": "NCI-H2009; first compound 0.08 µM", "value": 0.495}, {"measurement": "relative viability", "setting": "NCI-H2009; first compound 0.8 µM", "value": 0.598}, {"measurement": "relative viability", "setting": "NCI-H2009; first compound 2.53 µM", "value": 0.44}, {"measurement": "relative viability", "setting": "NCI-H2009; first compound 8 µM", "value": 0.295}, {"measurement": "relative viability", "setting": "NCI-H1993; first compound 0.08 µM", "value": 0.499}, {"measurement": "relative viability", "setting": "NCI-H1993; first compound 0.8 µM", "value": 0.542}, {"measurement": "relative viability", "setting": "NCI-H1993; first compound 2.53 µM", "value": 0.489}, {"measurement": "relative viability", "setting": "NCI-H1993; first compound 8 µM", "value": 0.467}, {"measurement": "relative viability", "setting": "LC-2-ad; first compound 0.08 µM", "value": 0.608}, {"measurement": "relative viability", "setting": "LC-2-ad; first compound 0.8 µM", "value": 0.772}, {"measurement": "relative viability", "setting": "LC-2-ad; first compound 2.53 µM", "value": 0.617}, {"measurement": "relative viability", "setting": "LC-2-ad; first compound 8 µM", "value": 0.367}, {"measurement": "relative viability", "setting": "NCI-H2087; first compound 0.08 µM", "value": 0.486}, {"measurement": "relative viability", "setting": "NCI-H2087; first compound 0.8 µM", "value": 0.459}, {"measurement": "relative viability", "setting": "NCI-H2087; first compound 2.53 µM", "value": 0.426}, {"measurement": "relative viability", "setting": "NCI-H2087; first compound 8 µM", "value": 0.479}, {"measurement": "relative viability", "setting": "PC-14; first compound 0.08 µM", "value": 0.604}, {"measurement": "relative viability", "setting": "PC-14; first compound 0.8 µM", "value": 0.988}, {"measurement": "relative viability", "setting": "PC-14; first compound 2.53 µM", "value": 0.465}, {"measurement": "relative viability", "setting": "PC-14; first compound 8 µM", "value": 0.393}, {"measurement": "relative viability", "setting": "HCC-15; first compound 0.08 µM", "value": 0.477}, {"measurement": "relative viability", "setting": "HCC-15; first compound 0.8 µM", "value": 0.504}, {"measurement": "relative viability", "setting": "HCC-15; first compound 2.53 µM", "value": 0.461}, {"measurement": "relative viability", "setting": "HCC-15; first compound 8 µM", "value": 0.438}, {"measurement": "relative viability", "setting": "HCC-366; first compound 0.08 µM", "value": 0.646}, {"measurement": "relative viability", "setting": "HCC-366; first compound 0.8 µM", "value": 0.638}, {"measurement": "relative viability", "setting": "HCC-366; first compound 2.53 µM", "value": 0.644}, {"measurement": "relative viability", "setting": "HCC-366; first compound 8 µM", "value": 0.676}, {"measurement": "relative viability", "setting": "LU99A; first compound 0.08 µM", "value": 0.856}, {"measurement": "relative viability", "setting": "LU99A; first compound 0.8 µM", "value": 0.951}, {"measurement": "relative viability", "setting": "LU99A; first compound 2.53 µM", "value": 0.942}, {"measurement": "relative viability", "setting": "LU99A; first compound 8 µM", "value": 0.757}, {"measurement": "relative viability", "setting": "COR-L23; first compound 0.08 µM", "value": 0.448}, {"measurement": "relative viability", "setting": "COR-L23; first compound 0.8 µM", "value": 0.542}, {"measurement": "relative viability", "setting": "COR-L23; first compound 2.53 µM", "value": 0.426}, {"measurement": "relative viability", "setting": "COR-L23; first compound 8 µM", "value": 0.462}, {"measurement": "relative viability", "setting": "NCI-H2126; first compound 0.08 µM", "value": 0.556}, {"measurement": "relative viability", "setting": "NCI-H2126; first compound 0.8 µM", "value": 0.609}, {"measurement": "relative viability", "setting": "NCI-H2126; first compound 2.53 µM", "value": 0.591}, {"measurement": "relative viability", "setting": "NCI-H2126; first compound 8 µM", "value": 0.476}, {"measurement": "relative viability", "setting": "SK-MES-1; first compound 0.08 µM", "value": 0.67}, {"measurement": "relative viability", "setting": "SK-MES-1; first compound 0.8 µM", "value": 0.694}, {"measurement": "relative viability", "setting": "SK-MES-1; first compound 2.53 µM", "value": 0.75}, {"measurement": "relative viability", "setting": "SK-MES-1; first compound 8 µM", "value": 0.585}, {"measurement": "relative viability", "setting": "CAL-12T; first compound 0.08 µM", "value": 0.578}, {"measurement": "relative viability", "setting": "CAL-12T; first compound 0.8 µM", "value": 0.687}, {"measurement": "relative viability", "setting": "CAL-12T; first compound 2.53 µM", "value": 0.554}, {"measurement": "relative viability", "setting": "CAL-12T; first compound 8 µM", "value": 0.543}]}
